Consider 1 compound from the NIST ThermoML archive (doi:10.1021/je200963q).

± gives the expanded uncertainty stated by the source.

The nature of this series: wn = mass fraction of the nth substance listed. To be noted: 303.15 K, 101.3 kPa, Liquid, w1 = 0.08.

For orientation: viscosity means the internal friction of a fluid under shear. What is called mass density is mass per unit of volume. On to `CCCCOCCOCCO` [3,6-dioxa-1-decanol] + O, for which the mass density is on record as 996.7 ± 0.4 kg/m3. Further, the viscosity (Capillary tube (Ostwald / Ubbelohde) method) is on record as 1.069 ± 0.009 mPa·s.
